The values that follow come from US20150335021A1, “Cycloclavine and Derivatives Thereof for Controlling Invertebrate Pests” (BASF SE, priority 2012, published 2015).

The mortality is the percentage killed.

For data set [1], the system named is Cotton Aphid (Aphis gossypi). The data set is described as follows: Cotton aphid spray test on infested cotton plants. Particulars: 120 h, after 5 days, in comparison with untreated controls. The class given is in vivo. From the text:
B.1 Cotton Aphid (Aphis gossypi)
The active compounds were formulated in cyclohexanone as a 10,000 ppm solution supplied in tubes. The tubes were inserted into an automated electrostatic sprayer equipped with an atomizing nozzle and they served as stock solutions for which lower dilutions were made in 50% acetone: 50% water (v/v). A nonionic surfactant (Kinetic®) was included in the solution at a volume of 0.01% (v/v).
Cotton plants at the cotyledon stage were infested with aphids prior to treatment by placing a heavily infested leaf from the main aphid colony on top of each cotyledon. Aphids were allowed to transfer overnight to accomplish an infestation of 80-100 aphids per plant and the host leaf was removed. The infested plants were then sprayed by an automated electrostatic plant sprayer equipped with an atomizing spray nozzle. The plants were dried in the sprayer fume hood, removed from the sprayer, and then maintained in a growth room under fluorescent lighting in a 24-hr photoperiod at 25° C. and 20-40% relative humidity. Aphid mortality on the treated plants, relative to mortality on untreated control plants, was determined after 5 days.

Data set [2] has as its system Silverleaf Whitefly (Bemisia argentifolii). The data set is described as follows: Silverleaf whitefly test on sprayed cotton plants. The class given is in vivo. Particulars: 72 h, spray, 3 days after treatment, in comparison with untreated controls. The text has this: B.5 Silverleaf Whitefly (Bemisia argentifolii)
The active compounds were formulated in cyclohexanone as a 10,000 ppm solution supplied in tubes. The tubes were inserted into an automated electrostatic sprayer equipped with an atomizing nozzle and they served as stock solutions for which lower dilutions were made in 50% acetone:50% water (v/v). A nonionic surfactant (Kinetic( ) was included in the solution at a volume of 0.01% (v/v).
Cotton plants at the cotyledon stage (one plant per pot) were sprayed by an automated electrostatic plant sprayer equipped with an atomizing spray nozzle. The plants were dried in the sprayer fume hood and then removed from the sprayer. Each pot was placed into a plastic cup and about 10 to 12 whitefly adults (approximately 3-5 days old) were introduced. The insects were collected using an aspirator and a nontoxic Tygon® tubing connected to a barrier pipette tip. The tip, containing the collected insects, was then gently inserted into the soil containing the treated plant, allowing insects to crawl out of the tip to reach the foliage for feeding. Cups were covered with a reusable screened lid. […] Mortality was assessed 3 days after treatment, compared to untreated control plants.

Data set [3] concerns Vetch Aphid (Megoura viciae). The data set is described as follows: Vetch aphid leaf disk microtiter plate test. The class given is in vivo. Particulars: foliar, 120 h, leaf disks sprayed, 5 days, in comparison with untreated controls. As for the experimental part:
B.7 Vetch Aphid (Megoura viciae)
For evaluating control of vetch aphid (Megoura viciae) through contact or systemic means the test unit consisted of 24-well-microtiter plates containing broad bean leaf disks.
The compounds were formulated using a solution containing 75% v/v water and 25% v/v DMSO. Different concentrations of formulated compounds were sprayed onto the leaf disks at 2.5 μl, using a custom built micro atomizer, at two replications.
After application, the leaf disks were air-dried and 5-8 adult aphids placed on the leaf disks inside the microtiter plate wells. The aphids were then allowed to suck on the treated leaf disks and incubated at about 23±1° C. and about 50±5% relative humidity for 5 days. Aphid mortality and fecundity was then visually assessed.

Data set [4] has as its system Rice Green Leafhopper (Nephotettix virescens). The data set is described as follows: Rice green leafhopper test on sprayed rice seedlings. The class given is in vivo. Particulars: spray, after 72 hours, in comparison with untreated controls. The method, then:
B.9 Rice Green Leafhopper (Nephotettix virescens)
Rice seedlings are cleaned and washed 24 hours before spraying. The active compounds are formulated in 50:50 acetone:water (vol:vol), and 0.1% vol/vol surfactant (EL 620) is added. Potted rice seedlings are sprayed with 5 ml test solution, air dried, placed in cages and inoculated with 10 adults. Treated rice plants are kept at about 28-29° C. and relative humidity of about 50-60%. Percent mortality is recorded after 72 hours.

Data set [5] has as its system antibodies against lysergic acid-bovine serum albumin conjugates. Particulars: antibodies raised in rabbits against lysergic acid conjugates; Arens et al, Planta Medica (1980); cited from earlier work.
For data set [6], the system named is Cowpea Aphid (aphis craccivora). The data set is described as follows: Cowpea aphid spray test on potted cowpea plants. Particulars: assessed after 24, 72 and 120 hours, in comparison with untreated controls. The class given is in vivo. The method, then:
(§1) If not otherwise specified the test solutions are prepared as follow:
(§2) The active compound is dissolved at the desired concentration in a mixture of 1:1 (vol:vol) distilled water:acteon. The test solution is prepared at the day of use and in general at concentrations of […].
B.2 Cowpea Aphid (aphis craccivora)
Potted cowpea plants colonized with approximately 100-150 aphids of various stages were sprayed after the pest population has been recorded. Population reduction was assessed after 24, 72, and 120 hours.

For data set [7], the system named is yellowfever mosquito larvae (Aedes aegypti). The data set is described as follows: Larval mosquito water treatment assay. As to conditions: 120 h.
Data set [8] relates to Green Peach Aphid (Myzus persicae). As to the kind of experiment: Green peach aphid spray test on bell pepper plants. Particulars: 120 h, after 5 days, in comparison with untreated controls. The class given is in vivo. The text has this: B.8 Green Peach Aphid (Myzus persicae)
The active compounds are formulated in cyclohexanone as a 10,000 ppm solution supplied in tubes. The tubes are inserted into an automated electrostatic sprayer equipped with an atomizing nozzle and they served as stock solutions for which lower dilutions are made in 50% acetone: 50% water (v/v). A nonionic surfactant (Kinetic®) is included in the solution at a volume of 0.01% (v/v).
Bell pepper plants at the first true-leaf stage are infested prior to treatment by placing heavily infested leaves from the main colony on top of the treatment plants. Aphids are allowed to transfer overnight to accomplish an infestation of 30-50 aphids per plant and the host leaves are removed. The infested plants are then sprayed by an automated electrostatic plant sprayer equipped with an atomizing spray nozzle. The plants are dried in the sprayer fume hood, removed, and then maintained in a growth room under fluorescent lighting in a 24-hr photoperiod at about 25° C. and about 20-40% relative humidity. Aphid mortality on the treated plants, relative to mortality on untreated control plants, is determined after 5 days.

The test system of data set [9] is Striped Flea Beetle (Phylotretta striolata). As to the kind of experiment: Striped flea beetle leaf-dip test on Chinese cabbage. The class given is in vivo. Particulars: 300 ppm, 72 hours after treatment, in comparison with untreated controls. The method, then: B.10 Striped Flea Beetle (Phylotretta striolata)
The active compound is dissolved at the desired concentration in a mixture of 1:1 (vol:vol) distilled water:acetone. Add surfactant (Alkamuls® EL620) at the rate of 0.1% (vol/vol). The test solution is prepared at the day of use.
Leaves of Chinese cabbage were dipped in test solution and air-dried. Treated leaves were placed in pertri dishes lined with moist filter paper and inoculated with 20 adults. Mortality was recorded 72 hours after treatment. Feeding damage were also recorded using scale of 0-100%.

Data set [10] deals with Diamond Back Moth (plutella xylostella). The data set is described as follows: Diamond back moth leaf-dip test on Chinese cabbage. The class given is in vivo. As to conditions: 300 ppm, recorded 24, 72 and 120 hours after treatment, in comparison with untreated controls. As for the experimental part: as §1, §2
B.3 Diamond Back Moth (plutella xylostella)
Leaves of Chinese cabbage were dipped in test solution and air-dried. Treated leaves were placed in petri dished lined with moist filter paper. Mortality was recorded 24, 72, and 120 hours after treatment.

Data set [11] relates to Orchid Thrips (dichromothrips corbetti). As to the kind of experiment: Orchid thrips floral-immersion test. Particulars: 300 ppm, after 4 days, in comparison with untreated controls. The class given is in vivo. The method, then:
B.4 Orchid Thrips (dichromothrips corbetti)
Dichromothrips corbetti adults used for bioassay are obtained from a colony maintained continuously under laboratory conditions. For testing purposes, the test compound is diluted to a concentration of 300 ppm (wt compound: vol diluent) in a 1:1 mixture of acetone:water (vol:vol), plus 0.01% vol/vol Kinetic® surfactant.
Thrips potency of each compound is evaluated by using a floral-immersion technique. Plastic petri dishes are used as test arenas. All petals of individual, intact orchid flowers are dipped into treatment solution and allowed to dry. Treated flowers are placed into individual petri dishes along with 10-15 adult thrips. The petri dishes are then covered with lids. All test arenas are held under continuous light and a temperature of about 28° C. for duration of the assay. After 4 days, the numbers of live thrips are counted on each flower, and along inner walls of each petri dish. The level of thrips mortality is extrapolated from pre-treatment thrips numbers.

Data set [12] has as its system Red spider Mite (Tetranychus kanzawai). The data set is described as follows: Red spider mite test on sprayed cowpea beans. The class given is in vivo. Particulars: 300 ppm, spray, after 72 h, in comparison with untreated controls. As for the experimental part:
B.6 Red spider Mite (Tetranychus kanzawai)
The active compound was dissolved at the desired concentration in a mixture of 1:1 (v/v) distilled water:acetone. A surfactant (Alkamuls® EL 620) was added at the rate of 0.1% (v/v).
Potted cowpea beans of 7-10 days of age were cleaned with tap water and sprayed with 5 ml of the test solution using air driven hand atomizer. The treated plants were allowed to air dry and afterwards inculated with 20 or more mites by clipping a cassava leaf section with known mite population. Treated plants were placed inside a holding room at about 25-27° C. and about 50-60% relatice humidity.
ortality by counting the live mites 72 HAT. Percent mortality was assessed after 72 h.

Some results are limits rather than exact numbers.

As for `CN1CC2(C)CC23c2cccc4[nH]cc(c24)CC13` (stereo not drawn) [compound 1-1, cycloclavin], the mortality at 300 ppm in data set [1], in data set [2], in [4], in data set [6] and in data set [8] was ≥ 75% each time. In addition, the mortality at 2500 ppm in [3] is ≥ 75%. For the same compound, the cross reaction activity result in [5] was “did not show cross reaction activity”. Also, the mortality at 10 ppm in [7] was ≥ 60%.
Consider “N-methylcarbamoyl-(1aR,3aR,9bR)-1a,2,3,3a,4,6-hexahydro-1a,3-dimethyl-1H-cycloprop[c]indolo[4,3-ef]indole [compound 1-2]”, for which the mortality result in [9], in [10], in data set [11] and in data set [12] was “at least 75%” each time.
